Measurements from article PMC8161026, “Synthesis and Anticancer Activity Evaluation of 5-[2-Chloro-3-(4-nitrophenyl)-2-propenylidene]-4-thiazolidinones” (Molecules, 2021).

What was measured:
AGS (gastric cancer) = experiment: MTT cell viability assay; format: cell-based; conditions: Homo sapiens, 24 h
Description: (§1) In the second stage of the research, Ciminalum-thiazolidinone hybrids were investigated for antitumor activity on the lines of gastric cancer (AGS), human colon cancer (DLD-1), and breast cancers (MCF-7 and MDA-MB-231). The study was performed in the MTT assay according to the method described previously. The studied cancer line was sensitive to the action of the studied compounds that inhibited its growth in micromolar ranges of GI50. The hit compounds that inhibited the growth of all four cancer lines with the lowest GI50 values were [5-[2-chloro-3-(4-nitrophenyl)prop-2-enylidene]-rhodanines 2c, 2d, 2h, and 2i (Table 4).

[1] = test system: DLD-1 (human colon cancer); experiment: MTT cell viability assay; format: cell-based; conditions: DLD-1, MTT, 24 h
Description: as §1

MCF-7 (breast cancer) = experiment: MTT cell viability assay; format: cell-based; conditions: Homo sapiens, MCF7; MCF-7, MTT, 24 h
Description: as §1

[2] = test system: MDA-MB-231 (breast cancer); experiment: MTT cell viability assay; format: cell-based; conditions: Homo sapiens; MDA-MB-231, MTT, 24 h
Description: as §1

[3] = test system: normal human blood lymphocytes; experiment: in vitro
Description: (§2) Another part of our study was to determine the influence of compounds 2f, 2i, 2j, and 2h on normal human blood lymphocytes (Figure 5). […] Thus, normal blood lymphocytes are blood cells, as well as cells of leukemia cell lines, therapeutic index (TI) of compounds 2f, 2h, and 2j was calculated as GI50 (normal blood lymphocyte)/GI50 (leukemia cell line) (Table 5).
(§3) Figure 5 Human lymphocyte viability after 48 h of 2f, 2i, 2j, 2h, and Ciminalum drug exposure was estimated by MTT assay.
(§4) The assay was performed by using 3-(4,5-dimethylthiazole-2-yl)- 2,5-diphenyltetrazolium bromide (MTT). Confluent cells, cultured for 24 h with 0.1, 1, 5, 10, 20, 30, and 100 µM concentrations of studied compounds in 24-well plates were washed with PBS. MTT was dissolved in PBS, and 25 µL were added to each well. Plates were incubated for 4 h at 37 °C in 5% CO2 in an incubator. The medium with MTT was removed, and 1 mL of DMSO was added to the attached cells. Furthermore, cells were incubated for 5–10 min in RT and then 10 µl of Sorensen buffer was added to each well. The absorbance of converted dye in living cells was measured at a wavelength of 570 nm. The cell viability of breast cancer cells, gastric cancer cells, and human colon cancer cells cultured in the presence of ligands was calculated as percent of control cells.
(§5) First, 20 mL of venous blood was taken from volunteers (Ethical protocol number 2, 27 January 2019) and collected in the presence of 200 μL of undiluted fresh heparin (1/100). Sterile blood was diluted 2 times with 0.9% NaCl under the sterile conditions. Isolation of lymphocytes was performed in a density gradient of ficol-verografin using the protocol of the manufacturer (Lympoprep, NYCOMED PHARMA AS, Oslo Norway). The resulting lymphocytes were resuspended in the RPMI-1640 medium and cultured for several days (up to 10 days). To separate the lymphocytes from the monocytes, cell suspension was left for 24 h. After 24 h of culture, monocytes were attached, while lymphocytes were transferred to a fresh Falcon tube (15 mL). To stimulate the proliferation of lymphocytes, they were cultured on CD3+ antibody-coated plastic plate in the RPMI-1640 medium supplemented with 20% FBS.

in vitro = conditions: human
Description: as §2, §3, §4, §5

[4] = test system: breast cancer lines MCF-7 and MDA-MB-231; experiment: MTT cell viability assay, both breast cancer lines; format: cell-based; conditions: Homo sapiens; MCF-7 and MDA-MB-231, MTT; read-out: GI50 level
Description: as §1

Jurkat T-cells = test system: Jurkat T-cells; parameters: method as in doi:10.7124/bc.00003D; conditions: cited from earlier work

GI50 (AGS (gastric cancer)) [µM] | GI50 [1] [µM] | GI50 (MCF-7 (breast cancer)) [µM] | GI50 [2] [µM] | melting point [°C] | GI50 at 48 h (in vitro) [µM] | GI50 [4] [µM] | Structure (SMILES) | toxicity toward normal human blood lymphocytes [3] | caspase-7 activation (Jurkat T-cells) | cleavage of PARP-1 and DFF45 (Jurkat T-cells)
17.1 | 16 | 17.9 | 15.8 | 257 to 258 |  |  | O=C(Cc1ccccc1Nc1c(Cl)cccc1Cl)NN1C(=O)/C(=C/C(Cl)=C/c2ccc([N+](=O)[O-])cc2)SC1=S [Compound 2e, N^1-{5-[(Z,2Z)-2-Chloro-3-(4-nitrophenyl)-2-propenylidene]-4-oxo-2-thioxothiazolidin-3-yl}-2-[2-(2,6-dichloroanilino)phenyl]acetamide] |  |  | 
18 | 27.5 | 26.4 | 16.8 | > 260 |  |  | O=C1/C(=C/C(Cl)=C/c2ccc([N+](=O)[O-])cc2)SC(=S)N1CCS(=O)(=O)O [Compound 2g, 2-{5-[(Z,2Z)-2-Chloro-3-(4-nitrophenyl)-2-propenylidene]-4-oxo-2-thioxothiazolidin-3-yl}-1-ethanesulfonic acid] | low toxicity |  | 
13.1 | 10 | 18.1 | 15.3 | 220 to 222 |  |  | O=C(O)CC(C(=O)O)N1C(=O)/C(=C/C(Cl)=C/c2ccc([N+](=O)[O-])cc2)SC1=S (stereo not drawn) [Compound 2k, 2-{5-[(Z,2Z)-2-Chloro-3-(4-nitrophenyl)-2-propenylidene]-4-oxo-2-thioxothiazolidin-3-yl}succinic acid] |  |  | 
3.2 | 9.22 | 1.73 | 0.95 | > 220 | > 100 | 0.95 to 1.74 | O=C(O)CCCCCN1C(=O)/C(=C/C(Cl)=C/c2ccc([N+](=O)[O-])cc2)SC1=S [Compound 2i, 6-{5-[(Z,2Z)-2-Chloro-3-(4-nitrophenyl)-2-propenylidene]-4-oxo-2-thioxothiazolidin-3-yl}hexanoic acid] | low toxicity |  | 
18.7 | 14 | 18 | 13.9 | > 270 |  |  | O=C1NC(=O)/C(=C/C(Cl)=C/c2ccc([N+](=O)[O-])cc2)S1 [Compound 2a, 5-[(Z,2Z)-2-Chloro-3-(4-nitrophenyl)-2-propenylidene]-2,4-thiazolidinedione] |  |  | 
12.6 | 9.19 | 21.2 | 17.5 | 205 to 207 |  |  | O=C(O)CCC(C(=O)O)N1C(=O)/C(=C/C(Cl)=C/c2ccc([N+](=O)[O-])cc2)SC1=S (stereo not drawn) [Compound 2l, 2-{5-[(Z,2Z)-2-Chloro-3-(4-nitrophenyl)-2-propenylidene]-4-oxo-2-thioxothiazolidin-3-yl}pentanedioic acid] |  |  | 
 |  |  |  |  | 10.4 |  | O=C/C(Cl)=C/c1ccc([N+](=O)[O-])cc1 [Ciminalum, (2Z)-2-chloro-3-(4-nitrophenyl)prop-2-enal, reference compound] |  |  | 
 |  |  |  |  |  |  | O=C1NC(=N/c2ccc(F)cc2)/C(=C/C(Cl)=C/c2ccc([N+](=O)[O-])cc2)S1 [III] |  | weak | weak
4.08 | 5.47 | 4.45 | 3.11 | > 230 |  |  | O=C(NN1C(=O)/C(=C/C(Cl)=C/c2ccc([N+](=O)[O-])cc2)SC1=S)c1csc2c1CCCC2 [Compound 2d, 5-[(Z,2Z)-2-Chloro-3-(4-nitrophenyl)-2-propenylidene]-4-oxo-3-(4,5,6,7-tetrahydrobenzo[b]thiophen-3-ylcarboxamido)-2-thioxo-4-thiazolidinone] |  |  | 
